{
  "source": "patent USRE35801E",
  "about": "“Prophylactic and therapeutic composition for circulatory disorders and method of treatment” (priority 1985, dated 1998)",
  "key": {"mouse": {"system": "mouse", "conditions": "mouse intraperitoneal administration; cited from earlier work"}, "[1]": {"system": "cerebral ischemia recirculation model", "test": "Protective action in cerebral ischemia recirculation model", "format": "in vivo, Wistar-strain male rat", "set-up": "key to Presence of electroencephalogram restoration / Judgement of action: The case when restoration of electroencephalogram is judged as +; case when not recognized as -", "procedure": "(3) Protective action in cerebral ischemia recirculation model\nA Wistar-strain male rat weighing about 400 g was administered intramascularly with 0.6 mg of di-tubocurarine to be immobilized and, after a trachea cannulation, the head portion was fixed under artificial respiration on a stereotaxic device. The head skin was cut open, cranial bone was bored, and then bipolar electrode for lead-out of electroencephalogram were placed on the surface of the subdural left frontal cerebral cortex. After the electrode was fixed with the cranial bone by use of dental cement, the animal was held on its back. Next, a cannula for measurement of systemic pressure was placed within the left femoral artery, and a cannula for additional administration of d-tubocurarine within the left femoral vein, respectively. The heart rate was measured and recorded by driving a heart rate meter with the artery wave.\nAfter blood pressure, heart rate and various parameters of electroencephalogram were stabilized, 10 mg/kg of the active ingredient of the present invention prepared in a suspension so as to give 1 ml/kg in 1% tragacanth gum solution was administered directly into duodenum […]. To the control group, only the 1% tragacanth gum solution of the same volume was administered similarly.\nTen to twenty minutes after administration of the medicine, while monitoring the electroencephalogram, blood pressure and heart rate on a multi-purpose monitoring recording device (RM-85 model, produced by Nippon Koden K.K.), the following operations were performed according to the methods shown below for cerebral ischemia loading.\nFirst, ribs were set free at the left costicartilage end to open the chest. Next, cerebral blood flow was blocked for ten minutes by obstructing the left common carotid artery and the left subclavian artery exposed at the aorta originating portion at the same time, and then the brachiocephalic trunk by use of artery clips 30 minutes after administration of the medicine.\nRecirculation of cerebral blood flow was effected by releasing at the same time the two artery clips mounted on the respective sites as mentioned above.\nThe protective action of the medicine for the disorder after recirculation of cerebral ischemia was examined by the presence of restoration of electroencephalogram, and survival time of animal after the recirculation.\nDuring the experiment, the rectal temperature of the animal was maintained at 37° to 38° C. by use of a warming mat. Also, the rectal temperature was continuously drawn on the recorder together with electroencephalogram, femoral artery pressure and heart rate."}, "[2]": {"system": "drowsy pattern of electroencephalogram induced by phenobarbital or pentobarbital sodium salt", "test": "Antagonistic action against drowsy pattern of electroencephalogram induced by phenobarbital or pentobarbital sodium salt", "format": "in vivo, Wistar-strain male rat", "conditions": "Rattus norvegicus; intravenous, sodium salt; drowsy EEG after PHB 30 mg/kg or PBT 5 mg/kg; read-out: Antagonistic action at dose or higher", "procedure": "(2) Antagonistic action against drowsy pattern of so electroencephalogram induced by phenobarbital or pentobarbital sodium salt\nA Wistar-strain male rat weighing about 400 g was intramasculary administered with 0.6 mg of d-tubocurarine to be immobilized and, while maintaining the rectal temperature at 37° to 38° C. under artificial respiration, the electroencephalogram of the left cerebral frontal cortex was measured and recorded. Also, within the left femoral artery and vein, cannulas for measurement of artery pressure and for administration of medicine were placed, respectively.\nAs the active ingredient of the present invention, sodium salt of the compound represented by Formula (I) was used and the respective doses of said active ingredient and 30 mg/kg of phenobarbital sodium salt (produced by Iwaki Seiyaku K.K.) (hereinafter called \"PHB\") or 5 mg/kg of pentobarbital sodium salt (hereinafter called PBT) were each dissolved in physiological saline and administered intravenously in a liquid amount of 1 ml/kg.\nThe action of the active ingredient of the present invention affecting the cortex electroencephalogram after PHB or PBT administration was investigated as follows; Namely, at the time of 5 minutes or later after PHB or PBT administration when increase of the slow-wave component can be clearly recognized on electroencephalogram, 1, 3, 10, 30 and 100 mg/kg of the active ingredient were administered. To the control group 1 ml/kg of physiological saline was intravenously administered.\nRecording and analysis of electroencephalogram were continuously drawn together with artery pressure, heart rate and rectal temperature on the recorder through a multi-purpose monitoring recording device (model RM-85, produced by Nippon Koden K.K.). At the same time, electroencephalogram was recorded in data recorder (model A-65, produced by Sony K.K.), and compressed spectral array analysis was conducted by means of a computer for medical data processing (ATAC-450, produced by Nippon Koden K.K.)."}},
  "note": "Values joined by “and” are separate entries in the source; they are usually repeats but may differ in a detail not shown here. Identical values can stand only once.",
  "data": [
    {"molecule": "CC1=NN(c2ccccc2)C(=O)C1", "note": "[Compound 1, 3-methyl-1-phenyl-2-pyrazolin-5-one]", "values": [
      {"measurement": "LD50", "setting": "mouse", "result": 2012, "unit": "mg/kg"},
      {"measurement": "Presence of electroencephalogram restoration", "setting": "[1]; 10 mg/kg into duodenum, 10 min cerebral ischemia (Table 3)", "result": "+"},
      {"measurement": "Survival time after recirculation, average", "setting": "[1]; 10 mg/kg, average", "result": 117, "unit": "min"},
      {"measurement": "Judgement of action", "setting": "[1]; 10 mg/kg, individual animal", "result": "+"},
      {"measurement": "Presence of electroencephalogram restoration", "setting": "[1]; 10 mg/kg, individual animal", "result": "+"},
      {"measurement": "Survival time after recirculation", "setting": "[1]; 10 mg/kg, individual animal", "result": "46 min and 140 min and 164 min"},
      {"measurement": "electroencephalogram restoration during recirculation period (in words)", "setting": "[1]; active ingredient group", "result": "electroencephalogram appeared by restoration during recirculation period depending on the dose of 3 to 10 mg/kg"},
      {"measurement": "survival time of animals after recirculation (in words)", "setting": "[1]; active ingredient group", "result": "clearly elongated"},
      {"measurement": "minimal effective dose", "setting": "[2]", "result": "≥ 1", "unit": "mg/kg"}
    ]}
  ]
}
